According to patent publication US8106055B2, “Substituted amide compounds” (Gruenenthal GmbH, priority 2007, dated 2012):

molecular target: T1, human bradykinin 1 receptor (B1R) (Homo sapiens, UniProt P46663); experiment: Functional investigation on the human bradykinin 1 receptor (B1R), Ca2+ FLIPR assay in CHO K1 hB1R cells; assay type: cell-based; conditions: B1R antagonism human; test substance 10 μM; Ca2+ FLIPR, CHO K1 hB1R cells
T1 construct: expressed in transfected cells; host or cells: CHO K1 cells
T1 sequence (P46663 1-353): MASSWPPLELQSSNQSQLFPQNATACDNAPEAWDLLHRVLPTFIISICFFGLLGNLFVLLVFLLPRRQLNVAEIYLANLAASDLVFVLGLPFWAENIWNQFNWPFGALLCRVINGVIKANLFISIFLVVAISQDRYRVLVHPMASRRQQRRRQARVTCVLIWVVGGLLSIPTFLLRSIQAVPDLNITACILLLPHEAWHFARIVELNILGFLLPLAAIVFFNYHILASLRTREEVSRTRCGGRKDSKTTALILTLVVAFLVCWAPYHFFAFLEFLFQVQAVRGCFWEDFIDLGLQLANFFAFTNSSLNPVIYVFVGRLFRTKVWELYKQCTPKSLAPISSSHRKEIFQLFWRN
How it was run: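 Cells were dye-loaded with Fluo-4 plus probenecid, then test substances added and Ca2+ influx compared with agonist control for % activation. After 10-20 min, EC80 agonist (Lys-Des-Arg9-bradykinin human; Des-Arg9-bradykinin rat) was applied; suppression gave % inhibition and IC50 values.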

SMILES | B1R Ant. h [10 μM] % Inhibition [%]
CN(C)C(c1cccc(F)c1)C1CCC(CCNC(=O)COCCN(Cc2ccccc2)S(=O)(=O)c2ccccc2)CC1 (stereo not drawn) [Example 278] | 16
COc1cc(C)c(S(=O)(=O)N2CCCC(OCC(=O)NC3CCC(C(c4cccc(F)c4)N(C)C)CC3)C2)c(C)c1C (stereo not drawn) [Example 279] | 23
COc1ccc(S(=O)(=O)N2CCCCC2COCC(=O)NCC2CCC(C(c3ccc(Cl)cc3)N(C)C)CC2)c(OC)c1 (stereo not drawn) [Example 280] | 51
COc1ccc(S(=O)(=O)N2CCCCC2COCC(=O)NCCC2CCC(C(c3cccc(F)c3)N(C)C)CC2)c(OC)c1 (stereo not drawn) [Example 281] | 0
CN(C)C(c1cccs1)C1CCC(NC(=O)COCCN(C)S(=O)(=O)c2ccc(OC(F)(F)F)cc2)CC1 (stereo not drawn) [Example 282] | −31
CN(C)C(c1cccc(F)c1)C1CCC(NC(=O)COC2CCN(S(=O)(=O)c3ccc(Cl)cc3Cl)C2)CC1 (stereo not drawn) [Example 283] | 50
CN(C)C(c1ccc(Cl)cc1)C1CCC(CNC(=O)COCCN(C)S(=O)(=O)c2ccc(Cl)cc2)CC1 (stereo not drawn) [Example 284] | 48
CN(C)C(c1ccc(F)cc1)C1CCC(CCNC(=O)COCCN(C)S(=O)(=O)c2c(Cl)cccc2Cl)CC1 (stereo not drawn) [Example 285] | 97
COc1cc(C)c(S(=O)(=O)N2CCC(OCC(=O)NC3CCC(C(c4cccc(F)c4)N(C)C)CC3)CC2)c(C)c1C (stereo not drawn) [Example 286] | 37
COc1cc(C)c(S(=O)(=O)N2CCC(OCC(=O)NCC3CCC(C(c4cccc(F)c4)N(C)C)CC3)CC2)c(C)c1C (stereo not drawn) [Example 287] | 1
COc1ccc(S(=O)(=O)N2Cc3ccccc3CC2COCC(=O)NCC2CCC(C(c3ccc(F)cc3)N(C)C)CC2)cc1 (stereo not drawn) [Example 288] | 62
CN(C)C(c1ccc(Cl)cc1)C1CCC(CCNC(=O)COCCN(C)S(=O)(=O)c2cccc(C(F)(F)F)c2)CC1 (stereo not drawn) [Example 289] | 51
CN(C)C(c1ccc(F)cc1)C1CCC(NC(=O)COC2CCN(S(=O)(=O)c3ccc(Cl)cc3Cl)C2)CC1 (stereo not drawn) [Example 290] | 37
CN(C)C(c1ccc(Cl)cc1)C1CCC(CCNC(=O)COCCN(C)S(=O)(=O)c2ccc(Cl)cc2Cl)CC1 (stereo not drawn) [Example 291] | 105
COc1ccc(S(=O)(=O)N(C)CCOCC(=O)NCCC2CCC(C(c3cccc(F)c3)N(C)C)CC2)cc1 (stereo not drawn) [Example 292] | 20
COc1ccc(S(=O)(=O)N(C)CCOCC(=O)NCCC2CCC(C(c3cccc(F)c3)N(C)C)CC2)cc1OC (stereo not drawn) [Example 293] | −7
CN(C)C(c1ccc(Cl)cc1)C1CCC(CNC(=O)COCC2CCCN(S(=O)(=O)c3ccccc3)C2)CC1 (stereo not drawn) [Example 294] | −3
CN(C)C(c1cccc(F)c1)C1CCC(CCNC(=O)COCC2CCCN(S(=O)(=O)c3ccccc3)C2)CC1 (stereo not drawn) [Example 295] | 7
CN(C)C(c1cccc(F)c1)C1CCC(CNC(=O)COCCN(Cc2ccccc2)S(=O)(=O)c2ccccc2)CC1 (stereo not drawn) [Example 296] | −1

SMILES | B1R Ant. h [10 μM] % Inhibition [%]
CN(C)C(c1cccc(F)c1)C1CCC(NC(=O)COCCN(C)S(=O)(=O)c2cccc(C(F)(F)F)c2)CC1 (stereo not drawn) [Example 297] | 15
COc1cc(C)c(S(=O)(=O)N(C)CCOCC(=O)NCC2CCC(C(c3ccc(Cl)cc3)N(C)C)CC2)c(C)c1C (stereo not drawn) [Example 298] | 103
CN(C)C(c1ccc(Cl)cc1)C1CCC(CNC(=O)COC2CCN(S(=O)(=O)c3ccccc3)C2)CC1 (stereo not drawn) [Example 299] | −15
CN(C)C(c1ccccc1)C1CCC(CNC(=O)COC2CCN(S(=O)(=O)c3ccccc3)CC2)CC1 (stereo not drawn) [Example 300] | −35
CN(C)C(c1ccc(Cl)cc1)C1CCC(CNC(=O)COC2CCCN(S(=O)(=O)c3ccccc3)C2)CC1 (stereo not drawn) [Example 301] | 2
CN(C)C(c1cccc(F)c1)C1CCC(CNC(=O)COCCN(C)S(=O)(=O)c2cccc(C(F)(F)F)c2)CC1 (stereo not drawn) [Example 302] | 38
CN(C)C(c1cccc(F)c1)C1CCC(CNC(=O)COCCN(C)S(=O)(=O)c2ccc(OC(F)(F)F)cc2)CC1 (stereo not drawn) [Example 303] | −19
Cc1ccc(S(=O)(=O)N2CCC(OCC(=O)NCC3CCC(C(c4ccc(Cl)cc4)N(C)C)CC3)C2)cc1 (stereo not drawn) [Example 304] | 22
Cc1ccc(S(=O)(=O)N2CCC(OCC(=O)NCCC3CCC(C(c4ccc(Cl)cc4)N(C)C)CC3)C2)cc1 (stereo not drawn) [Example 305] | 30
Cc1ccc(S(=O)(=O)N(C)CCOCC(=O)NCCC2CCC(C(c3ccc(Cl)cc3)N(C)C)CC2)cc1 (stereo not drawn) [Example 306] | 38
COc1cc(C)c(S(=O)(=O)N2CCC(OCC(=O)NCCC3CCC(C(c4cccc(F)c4)N(C)C)CC3)C2)c(C)c1 (stereo not drawn) [Example 307] | 105
CN(C)C(c1cccc(F)c1)C1CCC(CNC(=O)COCCN2CCN(S(=O)(=O)c3ccccc3)CC2)CC1 (stereo not drawn) [Example 308] | −1
CN(C)C(c1cccc(F)c1)C1CCC(CNC(=O)COC2CCCN(S(=O)(=O)c3ccccc3)C2)CC1 (stereo not drawn) [Example 309] | −4
CCN(CCOCC(=O)NCC1CCC(C(c2ccc(Cl)cc2)N(C)C)CC1)S(=O)(=O)c1c(C)cc(OC)c(C)c1C (stereo not drawn) [Example 310] | 89
COc1ccc(S(=O)(=O)N2CCCCC2COCC(=O)NCCC2CCC(C(c3ccc(Cl)cc3)N(C)C)CC2)cc1 (stereo not drawn) [Example 311] | 69
COc1ccc(S(=O)(=O)N2CCCCC2CCOCC(=O)NCC2CCC(C(c3ccc(Cl)cc3)N(C)C)CC2)cc1 (stereo not drawn) [Example 312] | 71
COc1ccc(S(=O)(=O)N2CCCC2COCC(=O)NCC2CCC(C(c3cccc(F)c3)N(C)C)CC2)cc1 (stereo not drawn) [Example 313] | 34
CN(C)C(c1ccc(Cl)cc1)C1CCC(CNC(=O)COCCN(C)S(=O)(=O)c2cccc(C(F)(F)F)c2)CC1 (stereo not drawn) [Example 314] | 74
COc1cc(C)c(S(=O)(=O)N(C)CCOCC(=O)NCCC2CCC(C(c3ccc(Cl)cc3)N(C)C)CC2)c(C)c1C (stereo not drawn) [Example 317] | 103

SMILES | B1R Ant. h [10 μM] % Inhibition [%]
CN(C)C(c1ccc(Cl)cc1)C1CCC(CNC(=O)COCCN(C)S(=O)(=O)c2c(Cl)cc(Cl)cc2Cl)CC1 (stereo not drawn) [Example 318] | 104
COc1cc(C)c(S(=O)(=O)N2CCC(CCOCC(=O)NCC3CCC(C(c4cccc(F)c4)N(C)C)CC3)CC2)c(C)c1C (stereo not drawn) [Example 319] | 0
COc1cc(C)c(S(=O)(=O)N2CCN(CCOCC(=O)NCCC3CCC(C(c4ccc(Cl)cc4)N(C)C)CC3)CC2)c(C)c1C (stereo not drawn) [Example 320] | 73
COc1ccc(S(=O)(=O)N2CCCCC2COCC(=O)NCC2CCC(C(c3ccc(Cl)cc3)N(C)C)CC2)cc1 (stereo not drawn) [Example 321] | 94
COc1ccc(S(=O)(=O)N2CCCCC2COCC(=O)NC2CCC(C(c3cccc(F)c3)N(C)C)CC2)c(OC)c1 (stereo not drawn) [Example 322] | −14
COc1ccc(S(=O)(=O)N2CCC(OCC(=O)NC3CCC(C(c4cccc(F)c4)N(C)C)CC3)C2)cc1OC (stereo not drawn) [Example 323] | −14
COc1ccc(S(=O)(=O)N(C)CCOCC(=O)NCC2CCC(C(c3ccc(Cl)cc3)N(C)C)CC2)cc1 (stereo not drawn) [Example 324] | 42
CN(C)C(c1cccc(F)c1)C1CCC(CCNC(=O)COCCN2CCN(S(=O)(=O)c3ccccc3)CC2)CC1 (stereo not drawn) [Example 325] | 45
CN(C)C(c1cccc(F)c1)C1CCC(CCNC(=O)COC2CCCN(S(=O)(=O)c3ccccc3)C2)CC1 (stereo not drawn) [Example 326] | −5
CCN(CCOCC(=O)NCC1CCC(C(c2ccc(F)cc2)N(C)C)CC1)S(=O)(=O)c1c(C)cc(OC)c(C)c1C (stereo not drawn) [Example 327] | 101
COc1ccc(S(=O)(=O)N2CCCCC2COCC(=O)NCC2CCC(C(c3cccc(F)c3)N(C)C)CC2)cc1OC (stereo not drawn) [Example 329] | −17
CN(C)C(c1ccc(F)cc1)C1CCC(NC(=O)COC2CCN(S(=O)(=O)c3cccc(C(F)(F)F)c3)C2)CC1 (stereo not drawn) [Example 330] | −6
CN(C)C(c1ccc(Cl)cc1)C1CCC(CNC(=O)COC2CCN(S(=O)(=O)c3cccc(C(F)(F)F)c3)C2)CC1 (stereo not drawn) [Example 331] | 30
Cc1cc(C)c(S(=O)(=O)N2CCC(OCC(=O)NC3CCC(C(c4ccc(F)cc4)N(C)C)CC3)C2)c(C)c1 (stereo not drawn) [Example 332] | 57
CN(C)C(c1cccc(F)c1)C1CCC(CNC(=O)COCCC2CCN(S(=O)(=O)c3ccccc3)CC2)CC1 (stereo not drawn) [Example 333] | 17
CN(C)C(c1ccc(F)cc1)C1CCC(CNC(=O)COCCN(C)S(=O)(=O)c2c(Cl)cccc2Cl)CC1 (stereo not drawn) [Example 334] | 103
CN(C)C(c1cccc(F)c1)C1CCC(NC(=O)COC2CCN(S(=O)(=O)c3ccccc3)CC2)CC1 (stereo not drawn) [Example 335] | −8
CN(C)C(c1ccc(F)cc1)C1CCC(NC(=O)COCCN(Cc2ccccc2)S(=O)(=O)c2ccccc2)CC1 (stereo not drawn) [Example 336] | 20
CN(C)C(c1ccc(F)cc1)C1CCC(CCNC(=O)COCC2CCCCN2S(=O)(=O)c2ccc(Cl)c(Cl)c2)CC1 (stereo not drawn) [Example 337] | 51
